Data set [1] has as its system HepG2. Briefly: Cytotoxicity against human HepG2 cells assessed as reduction in cell viability incubated for 24 hrs by MTT assay. The format is functional, cell-based. The following applies: for IC50: HepG2, 24 h. Background: Formazan colour is commonly taken as a measure of viable cells.
The test system of data set [2] is QGY-7703. The data set is described as follows: Cytotoxicity against human QGY7703 cells assessed as reduction in cell viability incubated for 24 hrs by MTT assay. The format is functional, cell-based. Conditions: for IC50: QGY-7703, 24 h.
Data set [3] has as its system SMMC-7721. Briefly: Cytotoxicity against human SMMC7721 cells assessed as reduction in cell viability incubated for 24 hrs by MTT assay. The format is functional, cell-based. The following applies: for IC50: SMMC-7721, 24 h.
Data set [4] relates to Mus musculus. The data set is described as follows: Antiinflammatory activity in human HepG2 cells xenografted Balb/c nude mouse assessed as reduction in TNFalpha protein expression at 10 mg/kg, ip administered every 2 days for 20 days and measured every 2 days by immunohistochemistry. The format is functional, organism-based.
Data set [5] deals with HepG2. The data set is described as follows: Antitumor activity against human HepG2 cells xenografted in Balb/c nude mouse assessed as tumor volume level at 10 mg/kg, ip administered every 2 days for 20 days and measured every 2 days. The format is functional. (Xenograft models place foreign cells or tissue in a host animal.)
For data set [6], the system named is HepG2. The data set is described as follows: Antitumor activity against human HepG2 cells xenografted in Balb/c nude mouse assessed as induction of incomplete cells at 10 mg/kg, ip administered every 2 days for 20 days and measured every 2 days by H and E staining based assay. The format is functional, organism-based.
For data set [7], the system named is HepG2. Briefly: Antitumor activity against human HepG2 cells xenografted in Balb/c nude mouse assessed as induction of wrinkled abnormalities on cell morphology at 10 mg/kg, ip administered every 2 days for 20 days and measured every 2 days by H and E staining based assay. The format is functional, organism-based.
The test system of data set [8] is HepG2. The data set is described as follows: Induction of apoptosis in human HepG2 cells xenografted in Balb/c nude mouse assessed as reduction in Bcl-2 protein expression at 10 mg/kg, ip administered every 2 days for 20 days and measured every 2 days by immunohistochemistry. The format is functional, organism-based.
Data set [9] can be described thus: Cytotoxicity against human HHL5 cells assessed as reduction in cell viability incubated for 24 hrs by MTT assay. The format is cell-based. The following applies: HHL-5, 24 h.
In data set [10] the test system is L02. The data set is described as follows: Cytotoxicity against human LO2 cells assessed as reduction in cell viability incubated for 24 hrs by MTT assay. The format is cell-based. Conditions: L02, 24 h.
In data set [11] the test system is RAW264.7. Briefly: Antiinflammatory activity in mouse RAW264.7 cells assessed as inhibition of LPS-stimulated IL-6 production 6.0 uM preincubated for 2 hrs followed by LPS stimulaton measured after 22 hrs by ELISA relative to control. The format is functional.
Data set [12] deals with RAW264.7. The data set is described as follows: Antiinflammatory activity in mouse RAW264.7 cells assessed as inhibition of LPS-stimulated TNF-alpha production at 6.0 uM preincubated for 2 hrs followed by LPS stimulaton measured after 22 hrs by ELISA relative to control. The format is functional. For orientation: In an ELISA, binding on a coated surface is turned into a signal by an enzyme label.

Data set [13] concerns RAW264.7. Briefly: Cytotoxicity against mouse RAW264.7 cells assessed as reduction in cell viability at 6.0 uM incubated for 24 hrs by MTT assay. The format is cell-based. Conditions: raw264.7, 24 h.

Active and inactive are the calls of the source. The rule behind the calls is not given here.

Broadly, the IC50 is the midpoint of a concentration-inhibition curve.

As to `COc1cccc2c1C(=O)c1c(O)c3c(c(O)c1C2=O)C[C@@](O)(C(=O)CO)C[C@@H]3O[C@H]1C[C@H](N)[C@H](O)[C@H](C)O1` [DOXORUBICIN], the Activity entry in data set [1] was “Dose-dependent effect”; in [2] it was “Dose-dependent effect”; in [3] it was “Dose-dependent effect”; in [5], under 200 mm3. Also, the IC50 was determined as 1.37 µM in [2], 2.75 µM in data set [3] and 12.2 µM in data set [9]. Further, the result in data set [4], in data set [6], in data set [7] and in [8] was Active.
`O=C1/C(=C/c2cccnc2)CNC/C1=C\c1ccccc1C(F)(F)F`: the IC50 is 11.3 µM in data set [10]; 5.02 µM in data set [1]; 3.8 µM in data set [2]; 5.1 µM in data set [3]; 10.4 µM in data set [9]. Also, the inhibition result in data set [11] and in data set [12] was “Active” in each case. Also, the Activity result in data set [13] is reported as “Non-Toxic”.
In the case of `O=C1/C(=C/c2ccncc2)CN(S(=O)(=O)c2ccc([N+](=O)[O-])cc2)C/C1=C\c1ccccc1F`, the IC50 came to 18.4 µM in data set [10]; 11.3 µM in [1]; 8.8 µM in data set [2]; 15.8 µM in data set [3]; 16 µM in data set [9]. Further, the inhibition result in data set [11] and in data set [12] was “inactive” in each case. Besides, the Activity result in data set [13] is given as “Non-Toxic”.
On to `O=C1/C(=C/c2cccnc2)CN(S(=O)(=O)c2ccc(F)cc2)C/C1=C\c1ccccc1C(F)(F)F`, for which the IC50 in data set [10] amounted to 16.1 µM; in [1] it was 2.34 µM; in data set [2], 6.03 µM; in data set [3], 6.39 µM; in [9] it was 12.1 µM. Further, the inhibition result in [11] and in [12] was “Active” each time. In data set [13], the Activity result was “Non-Toxic”.
Turning to `CN1C/C(=C\c2cccnc2)C(=O)/C(=C/c2ccc(F)cc2Br)C1`, the 50% inhibitory concentration (IC50) was 14.4 µM in data set [10]; 13 µM in [1]; 2.61 µM in data set [2]; 20.8 µM in [3]; 11.3 µM in data set [9]. For the same compound, the inhibition entry in [11] and in data set [12] was “Active” each time. Further, the Activity result in [13] was “Non-Toxic”.
As to `O=C1/C(=C/c2cccnc2)CN(S(=O)(=O)c2ccc(Cl)cc2)C/C1=C\c1ccccc1F`, the concentration for half-maximal inhibition (IC50) is over 20 µM in data set [10]; 12.4 µM in data set [1]; 12.1 µM in [2]; 16.1 µM in [3]; over 20 µM in [9]. For the same compound, the inhibition entry in [11] and in data set [12] was “inactive” throughout. For the same compound, in [13], the Activity result is reported as “Non-Toxic”.
`COc1cc(/C=C2\CN(C)C/C(=C\c3cccnc3)C2=O)cc(OC)c1`: the IC50 was 18.4 µM in [10]; 6.91 µM in data set [1]; 7.9 µM in data set [2]; 17.9 µM in [3]; over 20 µM in [9]. Also, the inhibition entry in [11] and in data set [12] was “Active” each time. For the same compound, in [13], the Activity entry is listed as “Non-Toxic”.
In the case of `CN1C/C(=C\c2ccncc2)C(=O)/C(=C/c2ccc(F)cc2Br)C1`, the IC50 was found to be 12.4 µM in data set [10]; 9.2 µM in data set [1]; 6.9 µM in data set [2]; 23.8 µM in [3]; 11.6 µM in data set [9]. Also, the inhibition entry in [11] and in data set [12] was “Active” in each case. The Activity result in [13] is “Non-Toxic”.
In the case of `N#Cc1ccc(S(=O)(=O)N2C/C(=C\c3ccncc3)C(=O)/C(=C/c3ccccc3F)C2)cc1`, the IC50 was over 20 µM in [10]; 4.5 µM in [1]; 8.5 µM in [2]; 16.2 µM in [3]; 15.7 µM in data set [9]. For the same compound, the inhibition result in data set [11] and in data set [12] was “Active” each time. Also, in data set [13], the Activity entry is listed as “Non-Toxic”.
As to `O=C1/C(=C/c2cccnc2)CN(S(=O)(=O)c2ccc(Br)cc2)C/C1=C\c1ccccc1F`, the IC50 in data set [10] was 14.6 µM; in data set [1], 8.7 µM; in data set [2], 12.8 µM; in data set [3] it was 9.1 µM; in data set [9], 14.2 µM. In addition, the inhibition result in data set [11] and in data set [12] was “inactive” each time. In data set [13], the Activity entry is listed as “Non-Toxic”.
For `O=C1/C(=C/c2ccncc2)CN(S(=O)(=O)c2ccc(F)cc2)C/C1=C\c1ccccc1F`, the IC50 in [10] is 15.6 µM; in data set [1] it was 20.3 µM; in data set [2] it was 9.1 µM; in data set [3], over 20 µM; in data set [9], 15.4 µM. Moreover, the inhibition entry in data set [11] and in data set [12] was “inactive” in each case. The Activity entry in data set [13] is “Non-Toxic”.
For the compound `O=C1/C(=C/c2ccncc2)CN(S(=O)(=O)c2ccc(C(F)(F)F)cc2)C/C1=C\c1ccccc1F`, the concentration for half-maximal inhibition (IC50) in [10] is 18.6 µM; in data set [1] it was 4.03 µM; in [2], 9.5 µM; in data set [3] it was 11.1 µM; in data set [9], 13.4 µM. In addition, the inhibition result in data set [11] and in data set [12] was “Active” each time. In data set [13], the Activity entry is listed as “Non-Toxic”.
